Assay results published in PubChem BioAssay (NCI).
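All cell lines were grown in 96-well plates and treated with compound for 48 hours. Abbreviation: GI50, concentration required for 50% inhibition of growth. At the TGI there is no net growth.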

Legend:
Assay in all cases: NCI tumour cell line growth inhibition, 48 h
[1] = tested on: RXF 393 renal
[2] = tested on: SK-MEL-5 melanoma
[3] = tested on: SW-620 colon
[4] = tested on: SNB-19 CNS
[5] = tested on: NCI/ADR-RES ovarian
[6] = tested on: T-47D breast
[7] = tested on: OVCAR-8 ovarian
[8] = tested on: A549 NSCLC
[9] = tested on: MALME-3M melanoma
[10] = tested on: NCI-H23 lung

| Compound | GI50 [1] | TGI [1] | GI50 [2] | TGI [2] | GI50 [3] | TGI [3] | GI50 [4] | TGI [4] | GI50 [5] | TGI [5] | GI50 [6] | TGI [6] | GI50 [7] | TGI [7] | GI50 [8] | TGI [8] | GI50 [9] | TGI [9] | GI50 [10] | TGI [10] |
| --- | --- | --- | --- | --- | --- | --- | --- | --- | --- | --- | --- | --- | --- | --- | --- | --- | --- | --- | --- | --- |
| NC(=O)C(Br)CBr (centres undefined) | 1.27 µM | 2.7 µM | 4.08 µM | 14.3 µM | 1.29 µM | 2.79 µM | 15.5 µM | 29.6 µM | 2.93 µM | > 24.1 µM | 1.76 µM | 6.4 µM | 1.8 µM | 4.44 µM | 3.71 µM | 10.6 µM | 1.91 µM | 4.53 µM | 1.74 µM | 3.42 µM |
| CCON=C1C(C)(C)C(C)(C)C(C)(C)C1(C)C | – | > 100 µM | – | > 100 µM | – | > 100 µM | – | > 100 µM | – | > 100 µM | – | > 100 µM | – | > 100 µM | – | > 100 µM | – | > 100 µM | – | > 100 µM |
| COC(=O)Nc1nc2ccc(Oc3ccc(NC(=O)Nc4cccc(Br)c4)cc3)cc2[nH]1 | 1.92 µM | 11.9 µM | 0.948 µM | 11.9 µM | 1.48 µM | 17.6 µM | 8.31 µM | > 25 µM | > 6.8 µM | > 25 µM | 2.17 µM | > 16.7 µM | 4.32 µM | > 20 µM | 4.24 µM | > 13.4 µM | 1.41 µM | 9.14 µM | 3.23 µM | > 17.1 µM |
| CCOC(=O)c1cc2c(n1Cc1cc(OC)cc(OC)c1)-c1oncc1CCC2 | 0.0987 µM | > 100 µM | 0.0528 µM | 6.22 µM | 0.0784 µM | > 100 µM | 0.844 µM | > 100 µM | 0.0603 µM | – | – | – | 0.169 µM | > 100 µM | 0.112 µM | > 100 µM | – | – | 0.544 µM | > 100 µM |
| C=C1C(=O)O[C@H]2[C@H]1CC/C(CNC(=O)/C=C/c1cccc(OC)c1)=C\CC[C@@]1(C)O[C@@H]21 | 1.05 µM | 2.33 µM | 1.69 µM | 3.18 µM | 0.958 µM | 2.33 µM | 3.22 µM | 13.5 µM | 3.79 µM | 17.8 µM | – | – | 2.19 µM | 8.07 µM | 5.11 µM | 20.3 µM | 1.48 µM | 3.3 µM | 1.67 µM | 3.35 µM |
| Cc1[nH]c(C(=O)Nc2ccc(C(=O)N3CCNCC3)cc2OC(C)C)c(Cl)c1Cl | 1.59 µM | 3.25 µM | 1.73 µM | 3.13 µM | 1.9 µM | 3.59 µM | 1.89 µM | 3.95 µM | 2.25 µM | 5.58 µM | 1.91 µM | 4.62 µM | 2.25 µM | 5.32 µM | – | – | 1.59 µM | 3.05 µM | 1.95 µM | 4.21 µM |
| C[N+](C)([O-])CCCNc1c2ccccc2nc2cccc([N+](=O)[O-])c12 | – | 0.349 µM | – | 0.327 µM | – | – | – | 3.2 µM | – | 75.6 µM | – | 3.62 µM | – | 20.7 µM | – | 0.795 µM | – | 0.419 µM | – | 0.676 µM |
| CN(C)/C=C/c1nnnn1-c1ccc(Cl)cc1 | 7.55 µM | 26.8 µM | 15 µM | 35.4 µM | 10.7 µM | 49.8 µM | 29 µM | 92.9 µM | 10.2 µM | 36.3 µM | – | – | 11.2 µM | 64.4 µM | 30.5 µM | > 100 µM | 12.8 µM | 38.7 µM | 11.8 µM | 29.8 µM |
| Nc1ccc(-c2nc3ccccc3[nH]2)c(O)c1 | 35.4 µM | > 100 µM | 21.3 µM | 72.3 µM | 29.1 µM | > 100 µM | 66.8 µM | > 100 µM | 27.8 µM | 81.1 µM | – | – | 42.3 µM | > 100 µM | 35.3 µM | > 100 µM | – | – | 20 µM | 66.3 µM |
| c1cc(C2CCCCC2)ccc1OCCCCCCN1CCNCC1 | – | – | 1.78 µM | 3.26 µM | 1.78 µM | 3.4 µM | – | – | 2.36 µM | 5.14 µM | 2.14 µM | 4.79 µM | – | – | 1.92 µM | 3.65 µM | 1.99 µM | 3.86 µM | 1.96 µM | 3.82 µM |
| CC1=C(SCc2ccccc2)C(=O)c2ccccc2C1=O | – | 30.4 µM | – | 31 µM | – | > 100 µM | – | – | – | 61.1 µM | – | > 100 µM | – | 38.8 µM | – | – | – | 29.2 µM | – | 41.8 µM |
| COc1cc([C@@H]2c3cc4c(cc3C(Br)[C@H]3COC(=O)[C@H]23)OCO4)cc(OC)c1OC (some centres undefined) | 0.0815 µM | 6.48 µM | 0.209 µM | 0.488 µM | 0.194 µM | > 100 µM | 0.553 µM | > 100 µM | – | – | > 100 µM | > 100 µM | 0.31 µM | – | 0.313 µM | > 100 µM | 51.3 µM | > 100 µM | 0.321 µM | > 100 µM |
| C[C@]12CC/C(=N\N)C[C@@H]1CC[C@@H]1[C@@H]2CC[C@]2(C)/C(=N/N)CC[C@@H]12 | > 100 µM | > 100 µM | > 100 µM | > 100 µM | > 100 µM | > 100 µM | – | – | > 100 µM | > 100 µM | > 100 µM | > 100 µM | > 100 µM | > 100 µM | > 100 µM | > 100 µM | > 100 µM | > 100 µM | > 100 µM | > 100 µM |
| Cc1cc(=O)c2cc(N=Cc3ccc([N+](=O)[O-])o3)ccc2o1 | – | – | – | > 100 µM | – | > 100 µM | – | > 100 µM | – | > 100 µM | – | > 100 µM | – | – | – | > 100 µM | – | > 100 µM | – | > 100 µM |
| O=C1c2ccccc2-c2nccc3cc(Cl)nc1c23 | – | – | 1.34 µM | 2.61 µM | 1.15 µM | 2.37 µM | 20.7 µM | 74.8 µM | 5.16 µM | > 72.9 µM | 0.385 µM | 1.72 µM | – | – | 5.15 µM | > 94.1 µM | 0.908 µM | 2.42 µM | 1.12 µM | 2.4 µM |
| NC(N)=N/N=C/c1c(-c2cccs2)nc2sccn12 | – | – | 13.6 µM | 26.5 µM | 12.8 µM | 28.2 µM | 14.8 µM | 28.6 µM | 14.5 µM | 27.6 µM | 14.6 µM | 28.6 µM | 24.1 µM | 49 µM | 21.7 µM | 45.1 µM | – | – | 14.3 µM | 29 µM |
| CCOCC(=O)N[C@H]1CCc2cc(OC)c(OC)c(OC)c2-c2ccc(SC)c(=O)cc21 | – | 2.33 µM | – | < 0.01 µM | – | > 100 µM | – | > 100 µM | – | – | – | > 100 µM | – | 4.64 µM | – | > 100 µM | – | > 100 µM | – | 9.64 µM |
| COc1ccc(Nc2ncccc2/C=C/C(=O)c2cc(OC)c(OC)c(OC)c2)cc1 | 1.49 µM | 2.82 µM | 1.39 µM | 2.68 µM | 1.2 µM | 2.43 µM | 2.14 µM | 6.33 µM | 2.23 µM | 13.7 µM | 1.67 µM | 4.03 µM | 1.56 µM | 4.22 µM | – | – | 1.4 µM | 2.87 µM | 1.72 µM | 3.79 µM |
| O=C(Cn1c(=O)c(-c2ccccc2)nc2ccccc21)c1cccnc1 | – | – | > 100 µM | > 100 µM | > 100 µM | > 100 µM | > 100 µM | > 100 µM | > 100 µM | > 100 µM | > 100 µM | > 100 µM | > 100 µM | > 100 µM | > 100 µM | > 100 µM | > 100 µM | > 100 µM | > 100 µM | > 100 µM |
| N=S(=O)(c1ccccc1)c1ccccc1[N+](=O)[O-] (centres undefined) | – | > 100 µM | – | > 100 µM | – | > 100 µM | – | > 100 µM | – | – | – | – | – | > 100 µM | – | > 100 µM | – | > 100 µM | – | > 100 µM |
| CCN(CC)CC(=O)/C=C/c1ccc(C)cc1 | – | 44.2 µM | – | 33.1 µM | – | 30.3 µM | – | > 100 µM | – | – | – | – | – | 43.8 µM | – | 60.8 µM | – | 41.2 µM | – | > 100 µM |
| CCNc1c(C(=O)N(CC)CC)c(=O)[nH]c2ncccc12 | – | > 100 µM | – | > 100 µM | – | > 100 µM | – | > 100 µM | – | – | – | – | – | > 100 µM | – | > 100 µM | – | > 100 µM | – | > 100 µM |
| CC(=N\O)/C(C)=N/O.CC(=N\O)/C(C)=N/O.CC(=N\O)/C(C)=N/O.CC(=N\O)/C(C)=N/O.[Cu].[Cu] | 21.5 µM | 39.3 µM | 17.8 µM | 32.2 µM | 21.5 µM | 45.9 µM | 19.7 µM | 34.5 µM | 23.9 µM | 59.2 µM | 18.4 µM | 33.7 µM | 20.3 µM | 38.3 µM | 23 µM | 48.5 µM | 17.7 µM | 32.4 µM | – | – |
| NS(=O)(=O)c1ccc(C2C3=C(CCCC3=O)OC3=C2C(=O)c2ccccc2C3=O)cc1 (centres undefined) | 1.45 µM | 2.84 µM | 1.18 µM | 2.43 µM | 0.417 µM | 1.33 µM | 1.24 µM | 2.52 µM | 2.43 µM | 14.6 µM | – | – | – | – | 1.42 µM | 3.53 µM | 0.319 µM | 1.09 µM | 0.198 µM | 1.15 µM |
